What was measured:
Test in all cases: DSF 100 kinase selectivity screen;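 note: compound tested at 20 µM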
Assay type in all cases: binding
[1] = target: T1, ~100 representative kinases (Homo sapiens, UniProt Q13043); conditions: Protein STK4; DSF; average of three replicates
T1 construct: Recombinant protein kinase domains with a concentration of 2 μM
T1 sequence (Q13043 1-487): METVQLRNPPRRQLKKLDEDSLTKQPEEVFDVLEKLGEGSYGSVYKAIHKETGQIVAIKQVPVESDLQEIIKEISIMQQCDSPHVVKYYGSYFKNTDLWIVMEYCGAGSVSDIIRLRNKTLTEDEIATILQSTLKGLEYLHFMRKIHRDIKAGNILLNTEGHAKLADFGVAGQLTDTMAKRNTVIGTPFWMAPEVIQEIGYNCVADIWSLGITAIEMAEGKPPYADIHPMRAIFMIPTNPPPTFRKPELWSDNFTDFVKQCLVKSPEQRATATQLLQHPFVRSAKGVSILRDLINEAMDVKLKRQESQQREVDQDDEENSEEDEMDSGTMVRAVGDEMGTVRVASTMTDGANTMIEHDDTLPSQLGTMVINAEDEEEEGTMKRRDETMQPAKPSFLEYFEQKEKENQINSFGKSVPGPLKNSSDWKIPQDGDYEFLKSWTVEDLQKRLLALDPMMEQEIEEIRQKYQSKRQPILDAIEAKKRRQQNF
Summary of the method: (§1)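 Each kinase domain, at 2 μM, is mixed with 20 μM test compound and SYPRO Orange in Hepes (20 mM, pH 7.5) with 500 mM NaCl. Temperature is then raised at 3°C/min and fluorescence-monitored unfolding yields the melting temperature change, ΔTm in degrees Celsius.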

[2] = target: T2, ~100 representative kinases (Homo sapiens, UniProt P51955); conditions: protein NEK2; average of three replicates
T2 construct: Recombinant protein kinase domains with a concentration of 2 μM
T2 sequence (P51955 1-445): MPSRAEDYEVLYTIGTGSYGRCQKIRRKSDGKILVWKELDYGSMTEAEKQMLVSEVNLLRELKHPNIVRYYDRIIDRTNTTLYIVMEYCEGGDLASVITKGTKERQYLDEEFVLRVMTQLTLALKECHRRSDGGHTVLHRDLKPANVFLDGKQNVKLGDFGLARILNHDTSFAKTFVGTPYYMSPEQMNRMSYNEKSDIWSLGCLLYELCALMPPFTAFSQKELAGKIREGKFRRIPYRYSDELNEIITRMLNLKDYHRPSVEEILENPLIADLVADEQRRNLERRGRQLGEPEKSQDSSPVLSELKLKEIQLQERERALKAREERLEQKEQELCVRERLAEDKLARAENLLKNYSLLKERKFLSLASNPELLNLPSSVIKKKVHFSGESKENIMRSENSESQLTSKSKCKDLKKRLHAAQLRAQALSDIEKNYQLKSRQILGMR
Summary of the method: as §1

[3] = target: T3, ~100 representative kinases (Homo sapiens, UniProt Q9P289); conditions: protein MST4; average of three replicates
T3 construct: Recombinant protein kinase domains with a concentration of 2 μM
T3 sequence (Q9P289 whole entry, the tested form may be a part): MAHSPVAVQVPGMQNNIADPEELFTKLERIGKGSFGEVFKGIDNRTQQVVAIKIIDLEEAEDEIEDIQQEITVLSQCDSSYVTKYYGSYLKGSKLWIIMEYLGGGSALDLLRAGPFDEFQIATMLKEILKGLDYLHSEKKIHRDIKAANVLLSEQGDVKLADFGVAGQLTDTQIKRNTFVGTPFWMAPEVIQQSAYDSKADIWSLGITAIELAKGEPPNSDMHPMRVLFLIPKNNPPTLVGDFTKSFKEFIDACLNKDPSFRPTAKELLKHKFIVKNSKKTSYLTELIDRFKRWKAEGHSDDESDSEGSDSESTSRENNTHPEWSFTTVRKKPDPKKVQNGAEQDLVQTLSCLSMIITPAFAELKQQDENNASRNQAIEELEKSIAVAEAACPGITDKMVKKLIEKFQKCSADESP
Summary of the method: as §1

[4] = target: T4, ~100 representative kinases (Homo sapiens, UniProt Q8TDX7); conditions: protein NEK7; average of three replicates
T4 construct: Recombinant protein kinase domains with a concentration of 2 μM
T4 sequence (Q8TDX7 whole entry, the tested form may be a part): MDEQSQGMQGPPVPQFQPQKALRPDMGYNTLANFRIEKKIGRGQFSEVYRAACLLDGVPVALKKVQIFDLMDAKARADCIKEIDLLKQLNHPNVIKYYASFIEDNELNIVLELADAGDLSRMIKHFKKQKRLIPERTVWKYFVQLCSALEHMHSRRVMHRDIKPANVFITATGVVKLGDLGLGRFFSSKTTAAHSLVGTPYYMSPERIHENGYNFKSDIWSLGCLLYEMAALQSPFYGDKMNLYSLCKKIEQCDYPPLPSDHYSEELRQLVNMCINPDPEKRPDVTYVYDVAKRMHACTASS
Summary of the method: as §1

[5] = target: T5, ~100 representative kinases (Homo sapiens, UniProt Q00536); conditions: protein PCTK1; average of three replicates
T5 construct: Recombinant protein kinase domains with a concentration of 2 μM
T5 sequence (Q00536 whole entry, the tested form may be a part): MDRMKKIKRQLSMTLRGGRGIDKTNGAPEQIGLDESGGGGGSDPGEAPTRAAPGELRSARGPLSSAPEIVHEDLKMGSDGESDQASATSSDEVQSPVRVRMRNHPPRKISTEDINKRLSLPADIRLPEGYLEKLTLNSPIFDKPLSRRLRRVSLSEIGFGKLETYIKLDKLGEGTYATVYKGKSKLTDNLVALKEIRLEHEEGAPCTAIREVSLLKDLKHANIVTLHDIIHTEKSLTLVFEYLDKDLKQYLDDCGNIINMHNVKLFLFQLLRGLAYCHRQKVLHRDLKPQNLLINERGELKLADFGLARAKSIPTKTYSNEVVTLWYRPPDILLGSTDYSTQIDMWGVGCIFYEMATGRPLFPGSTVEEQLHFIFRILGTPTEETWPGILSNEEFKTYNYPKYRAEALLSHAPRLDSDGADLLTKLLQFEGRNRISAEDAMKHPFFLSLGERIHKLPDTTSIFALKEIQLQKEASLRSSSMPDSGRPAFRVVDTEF
Summary of the method: as §1

[6] = target: T6, ~100 representative kinases (Homo sapiens, UniProt Q9Y6E0); conditions: protein MST3; average of three replicates
T6 construct: Recombinant protein kinase domains with a concentration of 2 μM
T6 sequence (Q9Y6E0 whole entry, the tested form may be a part): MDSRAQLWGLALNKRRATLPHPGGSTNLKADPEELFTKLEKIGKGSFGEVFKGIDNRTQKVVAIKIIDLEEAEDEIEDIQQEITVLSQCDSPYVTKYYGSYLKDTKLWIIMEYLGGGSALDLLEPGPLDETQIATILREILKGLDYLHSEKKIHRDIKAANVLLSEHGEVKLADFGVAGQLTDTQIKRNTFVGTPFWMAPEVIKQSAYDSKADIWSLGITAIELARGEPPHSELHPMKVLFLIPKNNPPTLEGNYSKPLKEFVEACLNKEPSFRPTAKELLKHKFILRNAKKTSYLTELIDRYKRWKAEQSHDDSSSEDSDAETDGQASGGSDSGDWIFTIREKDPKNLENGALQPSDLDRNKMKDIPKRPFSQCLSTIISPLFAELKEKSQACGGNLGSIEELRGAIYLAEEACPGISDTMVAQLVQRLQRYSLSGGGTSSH
Summary of the method: as §1

[7] = target: T7, ~100 representative kinases (Homo sapiens, UniProt P51813); conditions: Protein BMX; average of three replicates
T7 construct: Recombinant protein kinase domains with a concentration of 2 μM
T7 sequence (P51813 1-675): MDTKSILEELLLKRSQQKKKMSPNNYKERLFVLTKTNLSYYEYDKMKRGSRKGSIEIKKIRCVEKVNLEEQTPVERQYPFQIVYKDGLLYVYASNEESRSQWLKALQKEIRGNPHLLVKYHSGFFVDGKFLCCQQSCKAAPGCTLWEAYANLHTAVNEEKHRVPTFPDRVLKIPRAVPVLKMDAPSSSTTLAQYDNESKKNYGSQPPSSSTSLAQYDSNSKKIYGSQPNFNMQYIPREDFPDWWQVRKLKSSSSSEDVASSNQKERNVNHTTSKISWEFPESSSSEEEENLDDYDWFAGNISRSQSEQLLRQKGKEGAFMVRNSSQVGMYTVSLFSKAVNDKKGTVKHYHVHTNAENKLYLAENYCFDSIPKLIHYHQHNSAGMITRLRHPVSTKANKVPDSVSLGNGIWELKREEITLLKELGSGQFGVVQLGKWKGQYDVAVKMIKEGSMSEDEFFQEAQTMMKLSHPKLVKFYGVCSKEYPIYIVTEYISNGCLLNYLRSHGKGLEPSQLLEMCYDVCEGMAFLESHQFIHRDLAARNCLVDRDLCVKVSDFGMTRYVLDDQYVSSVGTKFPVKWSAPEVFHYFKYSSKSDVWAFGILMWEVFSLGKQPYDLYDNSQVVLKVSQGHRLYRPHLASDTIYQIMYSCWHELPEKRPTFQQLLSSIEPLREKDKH
Summary of the method: as §1

[8] = target: T8, ~100 representative kinases (Homo sapiens, UniProt Q13557); conditions: Protein CAMK2D; average of three replicates
T8 construct: Recombinant protein kinase domains with a concentration of 2 μM
T8 sequence (Q13557 whole entry, the tested form may be a part): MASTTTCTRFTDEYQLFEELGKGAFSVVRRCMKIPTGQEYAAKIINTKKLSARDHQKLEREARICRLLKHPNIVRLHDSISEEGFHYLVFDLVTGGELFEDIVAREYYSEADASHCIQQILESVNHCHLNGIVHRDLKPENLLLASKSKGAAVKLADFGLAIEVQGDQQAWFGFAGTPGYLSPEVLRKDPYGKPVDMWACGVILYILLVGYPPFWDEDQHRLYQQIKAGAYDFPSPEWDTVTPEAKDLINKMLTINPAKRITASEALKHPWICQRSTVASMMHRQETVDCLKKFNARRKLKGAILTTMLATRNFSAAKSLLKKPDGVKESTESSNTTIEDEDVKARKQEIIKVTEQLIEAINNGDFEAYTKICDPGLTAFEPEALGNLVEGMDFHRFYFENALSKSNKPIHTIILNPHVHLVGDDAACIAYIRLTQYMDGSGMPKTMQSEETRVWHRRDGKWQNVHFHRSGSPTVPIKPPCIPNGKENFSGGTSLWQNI
Summary of the method: as §1

[9] = target: T9, ~100 representative kinases (Homo sapiens, UniProt P22830); conditions: protein FECH; average of three replicates
T9 construct: Recombinant protein kinase domains with a concentration of 2 μM
T9 sequence (P22830 55-423): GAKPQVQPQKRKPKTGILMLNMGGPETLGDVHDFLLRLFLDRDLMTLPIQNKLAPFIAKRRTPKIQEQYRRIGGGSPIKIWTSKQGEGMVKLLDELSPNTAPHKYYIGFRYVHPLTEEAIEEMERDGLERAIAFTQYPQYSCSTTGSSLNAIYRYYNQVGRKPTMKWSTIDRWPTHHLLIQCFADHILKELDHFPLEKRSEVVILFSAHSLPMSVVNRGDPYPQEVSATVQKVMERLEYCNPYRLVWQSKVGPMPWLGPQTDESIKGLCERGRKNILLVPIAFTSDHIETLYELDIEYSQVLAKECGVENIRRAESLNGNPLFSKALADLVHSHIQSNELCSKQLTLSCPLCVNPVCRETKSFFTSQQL
Summary of the method: as §1

[10] = target: T10, ~100 representative kinases (Homo sapiens, UniProt Q00532); conditions: Protein CDKL1; average of three replicates
T10 construct: Recombinant protein kinase domains with a concentration of 2 μM
T10 sequence (Q00532 whole entry, the tested form may be a part): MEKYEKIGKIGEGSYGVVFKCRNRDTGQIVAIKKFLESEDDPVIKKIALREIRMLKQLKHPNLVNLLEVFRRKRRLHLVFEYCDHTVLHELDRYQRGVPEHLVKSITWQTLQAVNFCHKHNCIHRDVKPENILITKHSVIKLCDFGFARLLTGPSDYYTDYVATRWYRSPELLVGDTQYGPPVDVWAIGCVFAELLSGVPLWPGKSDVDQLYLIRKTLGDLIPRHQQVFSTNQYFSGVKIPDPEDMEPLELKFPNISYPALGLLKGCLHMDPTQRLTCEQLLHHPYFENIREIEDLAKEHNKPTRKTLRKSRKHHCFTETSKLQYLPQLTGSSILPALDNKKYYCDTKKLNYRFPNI
Summary of the method: as §1

[11] = target: T11, ~100 representative kinases (Homo sapiens, UniProt P17948); conditions: protein FLT1; average of three replicates
T11 construct: Recombinant protein kinase domains with a concentration of 2 μM
T11 sequence (P17948 27-1338): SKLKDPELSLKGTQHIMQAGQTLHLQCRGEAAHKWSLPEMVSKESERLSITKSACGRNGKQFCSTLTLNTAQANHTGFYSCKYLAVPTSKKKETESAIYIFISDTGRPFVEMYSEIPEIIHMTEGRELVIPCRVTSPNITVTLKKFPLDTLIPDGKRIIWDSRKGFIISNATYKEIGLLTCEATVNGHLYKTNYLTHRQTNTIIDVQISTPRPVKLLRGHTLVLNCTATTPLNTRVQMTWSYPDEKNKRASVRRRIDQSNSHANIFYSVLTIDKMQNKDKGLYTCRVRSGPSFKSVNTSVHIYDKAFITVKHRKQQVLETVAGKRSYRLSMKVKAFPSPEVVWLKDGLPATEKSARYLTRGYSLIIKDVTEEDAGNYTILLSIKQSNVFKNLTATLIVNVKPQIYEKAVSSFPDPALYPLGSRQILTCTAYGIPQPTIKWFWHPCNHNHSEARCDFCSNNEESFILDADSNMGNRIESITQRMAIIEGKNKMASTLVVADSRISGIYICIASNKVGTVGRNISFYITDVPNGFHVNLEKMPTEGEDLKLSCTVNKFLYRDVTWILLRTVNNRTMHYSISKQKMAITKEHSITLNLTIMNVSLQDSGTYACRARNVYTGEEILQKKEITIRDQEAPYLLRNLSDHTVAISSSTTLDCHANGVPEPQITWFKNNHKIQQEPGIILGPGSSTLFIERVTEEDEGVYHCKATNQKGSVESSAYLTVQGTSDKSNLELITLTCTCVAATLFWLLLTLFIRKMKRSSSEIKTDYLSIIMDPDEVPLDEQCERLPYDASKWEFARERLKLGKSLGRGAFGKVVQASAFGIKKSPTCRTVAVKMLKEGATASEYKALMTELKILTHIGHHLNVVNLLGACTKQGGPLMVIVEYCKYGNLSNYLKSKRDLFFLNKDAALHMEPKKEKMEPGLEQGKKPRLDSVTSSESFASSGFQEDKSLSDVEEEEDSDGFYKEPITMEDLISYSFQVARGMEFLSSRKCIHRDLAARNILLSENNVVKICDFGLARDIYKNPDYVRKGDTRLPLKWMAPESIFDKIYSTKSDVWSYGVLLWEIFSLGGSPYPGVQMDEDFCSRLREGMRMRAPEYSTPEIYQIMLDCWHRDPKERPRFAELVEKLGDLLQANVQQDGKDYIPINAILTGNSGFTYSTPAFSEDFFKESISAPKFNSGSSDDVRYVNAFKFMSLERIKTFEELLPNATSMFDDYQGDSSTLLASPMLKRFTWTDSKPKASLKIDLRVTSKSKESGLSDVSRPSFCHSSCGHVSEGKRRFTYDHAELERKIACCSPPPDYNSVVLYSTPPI
Summary of the method: as §1

Structure (SMILES) | dTm [1] | dTm [2] | dTm [3] | dTm [4] | dTm [5] | dTm [6] | dTm [7] | dTm [8] | dTm [9] | dTm [10] | dTm [11]
O=C(Nc1cccc(-c2c[nH]c3ncnc(N4CCOCC4)c23)c1)C1(C(=O)Nc2cccc3c2CCC3)CC1 [Compound 11] | -11.70 K | -1.56 K | 0.22 K | 0.84 K | 3.50 K | -2.04 K | 1.17 K | 0.60 K | -8.36 K | 3.41 K | 1.96 K
O=C(Nc1ccccc1)C1(C(=O)Nc2cccc(-c3c[nH]c4ncnc(N5CCOCC5)c34)c2)CC1 [Compound 12] | 4.49 K | 1.92 K | 3.77 K | -0.19 K | 5.02 K | 3.58 K | 0.86 K | 0.39 K | 0.29 K | 3.09 K | 3.09 K
COc1cc(C(=O)N2CCOCC2)c(F)cc1Nc1nc(N(C)C)c2c(Cl)c[nH]c2n1 [Compound 36] | -1.57 K | -0.68 K | -3.37 K | -0.65 K | 0.43 K | -3.75 K | -0.34 K | 3.01 K | -1.01 K | 0.37 K | 0.33 K
CC(C)(C)c1cc(NC(=O)Nc2cccc(-c3c[nH]c4ncnc(N5CCOCC5)c34)c2)n(-c2ccc3ncccc3c2)n1 [Compound 28] | 8.26 K | 2.21 K | 6.29 K | 2.34 K | 15.55 K | 9.37 K | 2.95 K | 0.51 K | 1.86 K | 8.21 K | 12.33 K
Cc1ccc(C(=O)Nc2ccc(CN3CCN(C)CC3)c(C(F)(F)F)c2)cc1C#Cc1c[nH]c2ncnc(N3CCOCC3)c12 [Compound 1] | 7.61 K | 4.11 K | 4.54 K | 1.05 K | 1.60 K | 3.57 K | 1.60 K | 0.30 K | 0.00 K | 3.12 K | 4.48 K

Second part, the molecule after the results:

dTm [1] | dTm [2] | dTm [3] | dTm [4] | dTm [5] | dTm [6] | dTm [7] | dTm [8] | dTm [9] | dTm [10] | dTm [11] | Structure (SMILES)
6.48 K | 1.39 K | 6.98 K | 1.61 K | 7.39 K | 6.96 K | 1.13 K | 0.66 K | -2.64 K | 3.38 K | 0.43 K | O=C(Nc1cccc(-c2c[nH]c3ncnc(N4CCOCC4)c23)c1)C1(C(=O)Nc2ccc(F)c(Cl)c2)CC1 [Compound 18]
5.12 K | 2.00 K | 6.01 K | 1.01 K | 5.61 K | 6.82 K | 0.61 K | 0.36 K | 1.70 K | 2.59 K | 3.85 K | O=C(Nc1cccc(-c2c[nH]c3ncnc(N4CCOCC4)c23)c1)C1(C(=O)Nc2ccc(F)c(F)c2)CC1 [Compound 17]
0.00 K | -0.29 K | 6.31 K | -1.14 K | 4.12 K | 3.29 K | 0.24 K | 1.25 K | -5.01 K | 4.06 K | 3.75 K | O=C(Nc1cccc(-c2c[nH]c3ncnc(N4CCOCC4)c23)c1)C1(C(=O)Nc2ccc(F)c(Br)c2)CC1 [Compound 19]
7.44 K | 1.19 K | 7.93 K | 0.98 K | 8.82 K | 8.98 K | 1.40 K | 0.24 K | 2.57 K | 5.67 K | -2.83 K | Cc1cc(NC(=O)C2(C(=O)Nc3cccc(-c4c[nH]c5ncnc(N6CCOCC6)c45)c3)CC2)ccc1F [Compound 20]

Source: PMC12136037, “Type II kinase inhibitors that target Parkinson’s disease–associated LRRK2” (Science Advances, 2025)
